These results are taken from US20230141284A1, “CANCER THERAPEUTIC METHOD” (ONO PHARMACEUTICAL CO., LTD., priority 2020, published 2023).

Data set [1] is described as follows: Conversion of a prodrug to its active body (Compound B) in mouse plasma. Format: in vitro ADME. To be noted: 1 μmol/L, 37° C., 60 minutes. As to the method: (§1) The solutions of the example compounds in Table 2 below (50 μmol/L, 50% acetonitrile with 5% DMSO) were added to plasma (245 μL), respectively, such that the final concentrations thereof become 1 μmol/L. After keeping them the temperature at 37° C. for 60 minutes, 40 μL of the reaction solutions were taken therefrom, and added to 200 μL of acetonitrile/ethanol (7:3) containing Candesartan (internal standard).
(§2) The concentration of the compound prepared in Example 3 (Compound B) in the plasma resulting from the above reaction was analyzed by LC-MS/MS according to the following method.
(§3) The whole amount was transferred to a filter plate for protein removal and filtered by suction, and the filtrate thereof was diluted 2-fold with water. [LC column] Shim-pack XR-ODSII 2.0 mm ID×75 mm (Shimadzu Corporation) [LC condition] Column temperature: 40° C. Mobile phase: A: 0.2% formic acid in 5 mM ammonium acetate solution; and
(§4) [MS conditions] Electrospray, positive mode, multiple reaction monitoring; MS monitor ion: Compound B: m/z353.0→m/z311.2, DP: 80, CE: 35; and Candesartan (internal standard): m/z309.1→m/z163.0, DP: 71, CE: 21.
(§5) A regression formula was calculated from the peak area ratio (peak area of Compound B/peak area of Candesartan) of the real sample and the standard sample for the calibration curve in the same matrix, and the peak area ratio of the real sample was substituted into the regression formula to calculate the quantitative value. 60 minutes later, the concentration of Compound B in the sample was compared, and the conversion rate (%) thereof was calculated using the following formula:
(§6) Conversion rate (%)=Concentration of Compound B in the sample after 60 minutes (μmol/L)×100

Data set [2] in a line: Conversion of a prodrug to its active body (Compound B) in human plasma. Type of data set: in vitro ADME. To be noted: 1 μmol/L, 37° C., 60 minutes. As to the method:
as §1, §2, §3, §4, §5, §6

In data set [3] the test system is colon cancer cell line MC38. Description: Compound A and anti-PD-1 antibody 4H2 in MC38 tumor-bearing mouse model (Example 21). Format: in vivo, mice (C57/BL6). As to the method: Compound A was administered intravenously once 8 days after transplantation, and the anti-PD-1 antibody 4H2 was administered intraperitoneally 4 times every 6 days since 8 days after transplantation. • Vehicle (n=9), • Compound A (0.1 mg/kg; n=9), • Anti-PD-1 antibody 4H2 (10 mg/kg (but 20 mg/kg only in the first dosage); n=9), and • Compound A (0.1 mg/kg) and anti-PD-1 antibody 4H2 (10 mg/kg (but 20 mg/kg only in the first dosage); n=9).
FIGS. 6 and 7 show results thereof.

The test system of data set [4] is melanoma cell line B16F10. In words: Combination experiments in subcutaneously melanoma cell line B16F10 tumor-bearing mice model (Example 23). Format: in vivo, mice (C57/BL6). To be noted: until Day 30. The protocol: • Vehicle and control antibody (rIgG1) (n=8 or 6), • Compound A (0.3 mg/kg) and control antibody (rIgG1) (n=6), • Anti-PD-1 antibody 4H2 (10 mg/kg (but 20 mg/kg only in the first dose only); n=6), and • Compound A (0.3 mg/kg) and anti-PD-1 antibody 4H2 (10 mg/kg (but 20 mg/kg only for the first dosage)) (n=6).
In the Combination Experiment 1, Compound A was administered once 10 days after transplantation while the anti-PD-1 antibody 4H2 and control antibody were administered 4 times every 6 days since 10 days after transplantation, respectively.
• Vehicle and control antibody (rIgG1) (n=8 or 6), • Compound A (0.3 mg/kg) and control antibody (rIgG1) (n=6), • Anti-VEGFR2 antibody DC101 (BioXCell) (10 mg/kg; n=6), and • Compound A (0.3 mg/kg) and anti-VEGFR2 antibody DC101 (10 mg/kg) (n=6).
In the Combination Experiment 2, Compound A was administered 4 times every 7 days since 10 days after transplantation while anti-VEGFR2 antibody DC101 and control antibody were administered 7 times every 3 or 4 days once 10 days after transplantation, respectively.
Vehicle and Compound A were administered intravenously while control antibody, anti-PD-1 antibody, and anti-VEGFR2 antibody were administered intraperitoneally, respectively.
FIGS. 9 and 10 show results thereof.

The subject of data set [5] is human acute myeloid leukemia cell line MV4-11. In words: Anti-tumor effect in subcutaneously tumor model bearing human acute myeloid leukemia cell line MV4-11. Format: in vivo. To be noted: dosages of 1.0 mg/kg and 3.0 mg/kg; immunodeficient mice; until Day 28. As to the method: They were grouped based on tumor volume 6 days after transplantation, and Compound A (0.3, 1.0, and 3.0 mg/kg, respectively; n=8) and Vehicle (n=8) were administered to the subcutaneously tumor-bearing mice, respectively.

Another data set deals with IRF pathway. In words: Verification of STING agonistic activity (IRF pathway in cells of PCT/EP2017/59781). Type of data set: cell-based. Conditions: cells described in PCT/EP2017/59781, about 24 hours incubation. As to the method: The cells described at lines 37-39 on page 18 in the publication of PCT application with application number PCT/EP2017/59781 were suspended in RPMI medium to prepare 2×10^6 cells/mL cell suspension. 50 μL of cell suspensions were dispensed into a 96-well plate, to which 50 μL of 6 to 20,000 nM compound solutions were further added, followed by incubation at 37° C. for about 24 hours. 10 μL of the cell suspensions were collected from each well, which were mixed with 50 μL of Quanti-luc (Invivogen), and then the activity of the IRF pathway was measured by detecting luminescence using a microplate reader.

The target in another data set is T1, IDO1 (Homo sapiens, UniProt P14902).
T1 construct: His-tag; purchased BPS Bioscience
T1 sequence (P14902 whole entry): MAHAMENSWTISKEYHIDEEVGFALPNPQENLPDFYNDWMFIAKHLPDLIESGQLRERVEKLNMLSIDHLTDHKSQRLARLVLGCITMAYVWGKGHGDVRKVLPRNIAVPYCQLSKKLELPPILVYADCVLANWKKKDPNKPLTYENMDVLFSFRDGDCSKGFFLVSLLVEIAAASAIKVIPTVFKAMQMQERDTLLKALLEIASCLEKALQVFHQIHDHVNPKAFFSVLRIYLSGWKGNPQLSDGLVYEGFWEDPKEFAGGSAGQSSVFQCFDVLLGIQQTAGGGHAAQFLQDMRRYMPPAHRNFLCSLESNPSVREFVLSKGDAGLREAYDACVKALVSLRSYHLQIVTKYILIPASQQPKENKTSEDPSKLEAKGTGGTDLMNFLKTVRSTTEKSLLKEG
In words: IDO1 inhibitory activity (IDO1 Fluorogenic Inhibitor Screening Assay Kit). Format: biochemical. To be noted: compound solutions of 0.6 to 200 μmol/L added. As to the method: The evaluation of IDO1 inhibitory activity was carried out using the IDO1 Fluorogenic Inhibitor Screening Assay Kit (BPS Bioscience). Specifically, IDO1 Fluorogenic Reaction Solution was dissolved, of which 180 μL were added to each well. Then, 10 μL of the compounds at the respective concentrations of 0.6, 2, 6, 20, 60 and 200 μmol/L were added thereto. Further, after adding 10 μL of IDO1 His-Tag solution thereto, and the mixture thereof was incubated at room temperature for 1 hour, and then 20 μL of Fluorescence Solution was added thereto, and the mixture thereof was incubated at 37° C. for 4 hours. After standing them at room temperature for 10 minutes, the fluorescence was measured using a microplate reader (excitation: 400 nm, emission: 510 nm).

Data set [6] concerns BTK, KDR, each subtype of PKCa to t, each CDK of CDK2 to 9, FAK, TIE2, RAF1 and BRAF. Description: Inhibitory activity against various kinases (mobility shift, LabChip). Format: biochemical. To be noted: 4 μmol/L test substance solution (4 times the final concentration). As to the method: 4 μmol/L of the test substance solution (the compound pertaining to the present invention produced in Example 1) (at 4 times the final concentration) was prepared by dissolving it to the assay buffer (20 mmol/L HEPES, 0.01% Triton X-100, 1 mmol/L DTT, pH 7.5). 4 μmol/L of the substrate/ATP/metal solution (at 4 times the final concentration) was prepared by dissolving it to the kit buffer (20 mmol/L HEPES, 0.01% Triton X-100, 5 mmol/L DTT, pH 7.5). Various kinase solutions at twice the final concentration were prepared by dissolving them to the assay buffer. 5 μL of the test substance solution, 5 μL of the substrate/ATP/metal solution and 10 μL of the kinase solution were mixed in wells of a polypropylene 384-well plate, and the mixture thereof was reacted at room temperature for 1 to 5 hours. The reaction was stopped by adding 70 μL of the termination buffer (QuickScout Screening Assist MSA; Carna Biosciences). The substrate peptide and phosphorylated peptide in the reaction solution were separated and quantified by LabChip system (Perkin Elmer). The kinase reaction was evaluated based on the product ratio (P/(P+S)) calculated from the peak height (S) of the substrate peptide and the peak height (P) of the phosphorylated peptide. The various kinases used in this evaluation are as follows: BTK, KDR, each subtype of PKCa to t, each CDK of CDK2 to 9, FAK, TIE2, RAF1 and BRAF.

Data set [7] deals with colon cancer cell line MC38. In words: Anti-tumor effect in subcutaneously colon cancer cell line MC38 tumor-bearing mouse model (Example 17). Format: in vivo, mice (C57/BL6). To be noted: 3 mg/kg, administered 7 days after transplantation, measured until Day 26. As to the method: Seven days after transplantation, the subcutaneously MC38 tumor-bearing mice were grouped based on tumor volume, and the Vehicle group (n=8) and group to which the compound shown in Example 1 (3 mg/kg, n=6) was administered were set. The changes in tumor volume were continuously measured until 26 days after transplantation (Day 26). The tumor volume was calculated by the following formula:
[Tumor volume (mm^3)]=[major axis (mm)]×[minor axis (mm)]^2×0.5

Molecules are shown by their SMILES.

`CC(=O)c1cc(-c2ncc(-c3cnn(COP(=O)(O)O)c3)c3onc(N)c23)c(F)cc1N` [Example 10(1), (4-(4-(5-acetyl-4-amino-2-fluorophenyl)-3-aminoisoxazolo[4,5-c]pyridin-7-yl)-1H-pyrazol-1-yl)methyl dihydrogen phosphate]: the “Plasma conversion rate Mouse” value in [1] was “+ + +”. Further, the “Plasma conversion rate Human” value in data set [2] is listed as “+ + +”. For the same molecule, the tumor-reducing effect result in data set [3] (Compound A 0.1 mg/kg combined with anti-PD-1 antibody 4H2, 28 days after transplantation) is reported as “showed the tumor-reducing effect”. Also, the “anti-tumor effect observed with anti-PD-1 antibody alone” value in [3] (Compound A 0.1 mg/kg i.v. once combined with anti-PD-1 antibody 4H2 10 mg/kg (20 mg/kg first dosage)) is listed as “enhanced”. For the same molecule, in [3] (combination of Compound A (0.1 mg/kg) and the anti-PD-1 antibody), the “number with complete tumor remission” value is given as 5 out of 9. Moreover, in data set [4] (Compound A 0.3 mg/kg 4 times every 7 days combined with anti-VEGFR2 antibody DC101 10 mg/kg), the “anti-tumor effect of anti-VEGFR2 antibody” value is “enhanced”. Further, in data set [4] (Compound A 0.3 mg/kg once combined with anti-PD-1 antibody 4H2 10 mg/kg (20 mg/kg first dosage)), the “anti-tumor effect of anti-PD-1 antibody” value is “enhanced”. Further, the “tumor growth (tumor volume)” value in data set [5] is “suppressed tumor growth”.

Consider `COC(=O)c1cc(-c2ncc(-c3cn[nH]c3)c3onc(N)c23)c(F)cc1N` [Example 1, methyl 2-amino-5-(3-amino-7-(1H-pyrazol-4-yl)isoxazolo[4,5-c]pyridin-4-yl)-4-fluorobenzoate], for which, in the data set on IRF pathway, the IRF activating effect entry is “no IRF activating effect”. Also, the IDO1 inhibitory activity entry at IDO1 is recorded as “no IDO1 inhibitory activity”. The “inhibitory activity against various kinases” value in data set [6] is reported as “no significantly inhibit activities”. Moreover, the “tumor growth (tumor volume)” value in [7] was “almost completely suppressed the tumor growth”.
